Measurements taken from patent US11267843B2, “Stereodefining L-monomers” (Roche Innovation Center Copenhagen A/S, priority 2016, dated 2022).

Assays:
[1] = Stability determination of amidite in solvent after 24 hours (HPLC-MS, UV 254 nm); assay type: physicochemical; conditions: for Stability at 24 hours: room temperature, grades 1-3, key not given
Description: (§1) To a 1.5 mL vial was added 0.013 mmol of amidite after which the solid material was dissolved in 0.13 mL of solvent. Hereafter, the vial was capped, vortexed, and finally left at room temperature for 24 hours. Then, the dissolved material was visually examined regarding the solubility (FIG. 1). If the solution appeared cloudy or otherwise non-homogenous the solubility was set to “no”.
Stability Determination Method: To complete the analysis the stability of the amidite was investigated using an Agilent 1100 series HPLC-MS with from the following specifications:
Column: Waters XTerra, MS C-18, 5 μm, 2.1×100 mm
Eluent: A: 0.1% sat. NH4OH (aq) in H2O B: 20% A in CH3CN
The mass and UV peak of the mother compound was identified at 0 hours and at 24 hours. Hereafter, the relative stability compared to other by-products was reported by integrating the UV chromatogram (254 nm) and normalizing the area to the chromatogram recorded at 0 hours (FIG. 2).

[2] = Solubility of amidite in solvent, visual examination; assay type: physicochemical
Description: To investigate the stability and solubility of L-LNA G-DMF and L-LNA G-i-Bu the following experimental procedure was followed:
as §1

Row | Compound | Stability at 24 hours ([1]; solvent DCE) | Stability at 24 hours ([1]; solvent DCM) | Stability at 24 hours ([1]; solvent DMF) | Stability at 24 hours ([1]; solvent DMSO) | Stability at 24 hours ([1]; solvent Dioxane) | Stability at 24 hours ([1]; solvent MeCN:Acetone (1:1)) | Stability at 24 hours ([1]; solvent MeCN:DCE (1:1)) | Stability at 24 hours ([1]; solvent MeCN:DCM (1:1)) | Stability at 24 hours ([1]; solvent MeCN:Toluene (1:1)) | Stability at 24 hours ([1]; solvent MeCN) | Stability at 24 hours ([1]; solvent NMP) | Stability at 24 hours ([1]; solvent THE) | Stability at 24 hours ([1]; solvent Toluene) | improvement in stability ([1]; all solvents investigated) | solubility in all solvents investigated ([2]; all solvents investigated (12 different)) | stability in most solvents (side by side comparison) ([1]; most solvents) | solubility in most solvents (side by side comparison) ([2]; most solvents)
1 | COc1ccc(C(OCC2OC(n3cc(C)c(=O)[nH]c3=O)CC2OP2OC(c3ccccc3)C3CCCN32)(c2ccccc2)c2ccc(OC)cc2)cc1 [D-DNA T-DMF] | 1 | 1 | 3 | 3 | 1 | 2 | 3 | 3 | 3 | 3 | 3 | 1 | 3 | – | – | – | –
2 | COc1ccc(C(OCC23COC(C(n4cc(C)c(=O)[nH]c4=O)O2)C3OP2OC(c3ccccc3)C3CCCN32)(c2ccccc2)c2ccc(OC)cc2)cc1 [L-LNA T-DMF] | 1 | 1 | 1 | 2 | 1 | 2 | 1 | 1 | 3 | 1 | 2 | 1 | 3 | – | – | – | –
3 | COc1ccc(C(OC[C@@]23CO[C@@H]([C@H](n4cnc5c(=O)[nH]c(NC(=O)C(C)C)nc54)O2)[C@@H]3O[P@]2O[C@H](c3ccccc3)[C@@H]3CCCN32)(c2ccccc2)c2ccc(OC)cc2)cc1 [L-LNA G-iBu, N-(9-((1R,3R,4R,7S)-1-((bis(4-methoxyphenyl)(phenyl)methoxy)methyl)-7-(((1R,3R,3aS)-3-phenyltetrahydro-1H,3H-pyrrolo[1,2-c][1,3,2]oxazaphosphol-1-yl)oxy)-2,5-dioxabicyclo[2.2.1]heptan-3-yl)-6-oxo-6,9-dihydro-1H-purin-2-yl)isobutyramide] | 2 | 2 | 3 | 3 | 1 | 2 | 2 | 2 | 3 | 2 | – | 2 | 3 | significant improvement | soluble | – | –
4 | COc1ccc(C(OCC2OC(n3cnc4c(=O)[nH]c(N=CN(C)C)nc43)CC2OP2OC(c3ccccc3)C3CCCN32)(c2ccccc2)c2ccc(OC)cc2)cc1 [L-DNA G-DMF] | – | – | 3 | 3 | 2 | 3 | 3 | 3 | 3 | 2 | – | 3 | 3 | – | – | – | –
5 | COc1ccc(C(OCC23COC(C(n4cnc5c(=O)[nH]c(N=CN(C)C)nc54)O2)C3OP2OC(c3ccccc3)C3CCCN32)(c2ccccc2)c2ccc(OC)cc2)cc1 [D-LNA G-DMF] | 1 | 1 | 1 | 1 | 1 | 2 | 1 | 1 | 3 | 1 | 3 | 2 | 3 | – | – | stable | soluble
6 | COc1ccc(C(OCC2OC(n3cnc4c(=O)[nH]c(N=CN(C)C)nc43)CC2OP2OC(c3ccccc3)C3CCCN32)(c2ccccc2)c2ccc(OC)cc2)cc1 [D-DNA G-DMF] | – | – | 3 | 3 | 2 | 3 | 3 | 3 | 3 | 3 | – | 3 | 3 | – | – | – | –
7 | COc1ccc(C(OCC2OC(n3cc(C)c(=O)[nH]c3=O)CC2OP2OC(c3ccccc3)C3CCCN32)(c2ccccc2)c2ccc(OC)cc2)cc1 [L-DNA T-DMF] | 1 | 1 | 3 | 3 | 1 | 3 | 3 | 3 | 3 | 3 | 3 | 2 | 3 | – | – | – | –
8 | COc1ccc(C(OCC23COC(C(n4cc(C)c(=O)[nH]c4=O)O2)C3OP2OC(c3ccccc3)C3CCCN32)(c2ccccc2)c2ccc(OC)cc2)cc1 [D-LNA T-DMF] | 1 | 1 | 2 | 3 | 2 | 2 | 1 | 1 | 3 | 1 | 3 | 1 | 3 | – | – | – | –
